Test [1] deals with COLO 205. The experiment in a line: Cytotoxicity against human COLO205 cells. The class given is functional.
The subject of test [2] is COLO 205. The experiment in a line: Cytotoxicity against human COLO205 cells after 48 hrs by Alamar blue assay. The class given is functional, cell-based. The following applies: COLO 205, 48 h. In general terms: The colour change of resazurin is a common sign of viable cells or microbes.
Test [3] relates to MCF7. The experiment in a line: Cytotoxicity against human MCF7 cells. It counts as functional.
Test [4] concerns MCF7. The test is described as follows: Cytotoxicity against human MCF7 cells after 48 hrs by Alamar blue assay. The following applies: MCF7, 48 h. It counts as functional, cell-based.
Test [5] can be described thus: Cytotoxicity against human NCI-ADR-RES cells after 48 hrs by Alamar blue assay. The class given is functional, cell-based.

For three compounds, GI50 and IC50 results are on record in ChEMBL document CHEMBL2151007, “Total Syntheses and Cytotoxicity of (R)- and (S)-Boehmeriasin A” (ACS Med Chem Lett, 2011).

The structures appear in SMILES notation.

Usually GI50 stands for the concentration at which growth is held to half of that of the control. A high value points to less potent growth inhibition. By IC50 is commonly meant the concentration that inhibits the measured activity by half. A higher IC50 goes with lower potency. `COc1ccc2c3c(c4cc(OC)c(OC)cc4c2c1)CN1CCCC[C@@H]1C3`: the concentration for 50% growth inhibition (GI50) turned out to be 0.8 nM in test [1] and 13 nM in test [3]. In addition, the IC50 in test [2] was found to be 4.18 nM; in test [4], 43.4 nM; in test [5], 36.7 nM.
With `COc1ccc2c3c(c4cc(OC)c(OC)cc4c2c1)CN1CCCC[C@H]1C3`, the IC50 in test [2] was found to be 103 nM; in test [4], 92.7 nM; in test [5] it was 434 nM.
In the case of `CC(=O)O[C@H]1C(=O)[C@@]2(C)[C@H]([C@H](OC(=O)c3ccccc3)[C@]3(O)C[C@H](OC(=O)[C@H](O)[C@@H](NC(=O)c4ccccc4)c4ccccc4)C(C)=C1C3(C)C)[C@]1(OC(C)=O)CO[C@@H]1C[C@@H]2O` [PACLITAXEL], the IC50 was 3.31 nM in test [2], 1.62 nM in test [4] and > 6400 nM in test [5].
